Measured values: PubChem BioAssay (NCI)
Several values for one entry are separate records, joined by “and”; a condition that tells them apart may be missing. Equal entries are not always repeated.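 Briefly, cells in 96-well plates were exposed to five compound concentrations for 48 h, and endpoints were estimated by linear interpolation. Abbreviation: GI50, concentration required for 50% inhibition of growth. TGI is the concentration that stops growth completely.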

Key:
Assay in all cases: NCI anticancer screen, dose series, 48 h
[1] = system: 786-0 renal
[2] = system: HOP-62 NSCLC
[3] = system: UACC-62 melanoma
[4] = system: RXF 393 renal
[5] = system: M14 melanoma
[6] = system: OVCAR-8 ovarian
[7] = system: SR leukemia
[8] = system: U251 CNS
[9] = system: PC-3 prostate
[10] = system: HCT-116 colon
[11] = system: NCI-H460 lung
[12] = system: A549 NSCLC
[13] = system: MOLT-4 leukemia
[14] = system: SK-MEL-28 melanoma
[15] = system: LOX IMVI melanoma
[16] = system: MDA-MB-435
[17] = system: UACC-257 melanoma
[18] = system: COLO 205 colon
[19] = system: SK-MEL-5 melanoma
[20] = system: RPMI-8226 leukemia
[21] = system: ACHN renal
[22] = system: NCI-H23 lung
[23] = system: MDA-MB-231 breast
[24] = system: OVCAR-4 ovarian
[25] = system: K-562 leukemia
[26] = system: SK-OV-3 ovarian
[27] = system: SW-620 colon
[28] = system: HL-60(TB) leukemia
[29] = system: NCI-H522 lung
[30] = system: SF-539 CNS
[31] = system: DU-145 prostate
[32] = system: EKVX NSCLC
[33] = system: IGROV1 ovarian
[34] = system: BT-549 breast
[35] = system: T-47D breast
[36] = system: TK-10 renal
[37] = system: HCC-2998 colon
[38] = system: SK-MEL-2 melanoma
[39] = system: SF-295 CNS
[40] = system: NCI/ADR-RES ovarian
[41] = system: CAKI-1 renal
[42] = system: OVCAR-3 ovarian
[43] = system: NCI-H226 lung
[44] = system: UO-31 renal
[45] = system: MCF7 breast
[46] = system: SNB-19 CNS
[47] = system: SF-268 CNS
[48] = system: SNB-75 CNS
[49] = system: HS 578T breast
[50] = system: HT29 colon
[51] = system: HCT-15 colon
[52] = system: OVCAR-5 ovarian
[53] = system: KM12 colon
[54] = system: SN12C renal
[55] = system: HOP-92 NSCLC
[56] = system: CCRF-CEM leukemia
[57] = system: MALME-3M melanoma

COC(=O)C1=C(OC(=O)c2ccccc2)C(C(=O)OC)[C@]2(O)[C@@H](C(=O)OC)C1CC(c1ccccc1OC)[C@@H]2C(=O)OC (stereo partly drawn)
GI50 [1]: 30.8 µM
TGI [1]: > 100 µM
GI50 [2]: 38.3 µM
TGI [2]: > 100 µM
GI50 [3]: 4.59 µM
TGI [3]: 23.2 µM
GI50 [4]: 2.53 µM
TGI [4]: 8.65 µM
GI50 [5]: 18.6 µM
TGI [5]: 50.8 µM
GI50 [6]: 18.4 µM
TGI [6]: > 100 µM
GI50 [7]: 1.54 µM
TGI [7]: 5.16 µM
GI50 [8]: 37.9 µM
TGI [8]: > 100 µM
GI50 [9]: 9.08 µM
TGI [9]: 69.2 µM
GI50 [10]: 13.9 µM
TGI [10]: 52.8 µM
GI50 [11]: 50.9 µM
TGI [11]: > 100 µM
GI50 [12]: 12.9 µM
TGI [12]: 77.9 µM
GI50 [13]: 5.52 µM
TGI [13]: 37.8 µM
GI50 [14]: 23.2 µM
TGI [14]: > 100 µM
GI50 [15]: 39.2 µM
TGI [15]: > 100 µM
GI50 [16]: 1.89 µM
TGI [16]: 4.4 µM
GI50 [17]: 5.37 µM
TGI [17]: 34.8 µM
GI50 [18]: 15.5 µM
TGI [18]: > 100 µM
GI50 [19]: 4.09 µM
TGI [19]: 20.5 µM
GI50 [20]: 6.17 µM
TGI [20]: 38.2 µM
GI50 [21]: 41.9 µM
TGI [21]: > 100 µM
GI50 [22]: 24.2 µM
TGI [22]: 72.7 µM
GI50 [23]: 14.7 µM
TGI [23]: 60.2 µM
GI50 [24]: 4.75 µM
TGI [24]: > 100 µM
GI50 [25]: 17.6 µM
TGI [25]: > 100 µM
GI50 [26]: 5.62 µM
TGI [26]: > 100 µM
GI50 [27]: 15.3 µM
TGI [27]: > 100 µM
GI50 [28]: 14.7 µM
TGI [28]: 67.1 µM
GI50 [29]: 8.93 µM
TGI [29]: > 100 µM
GI50 [30]: 3.45 µM
TGI [30]: 10.8 µM
GI50 [31]: 5.51 µM
TGI [31]: > 100 µM
GI50 [32]: 4.02 µM
TGI [32]: 35.3 µM
GI50 [33]: 44.5 µM
TGI [33]: > 100 µM
GI50 [34]: 5.58 µM
TGI [34]: 83.6 µM
GI50 [35]: 22 µM
TGI [35]: > 100 µM
GI50 [36]: 26.5 µM
TGI [36]: > 100 µM
GI50 [37]: 17.6 µM
TGI [37]: 34.1 µM
GI50 [38]: 36.2 µM
TGI [38]: > 100 µM
GI50 [39]: 5.41 µM
TGI [39]: > 100 µM
GI50 [40]: 21 µM
TGI [40]: 55.5 µM
GI50 [41]: 3.99 µM
TGI [41]: > 100 µM
GI50 [42]: 2.55 µM
TGI [42]: > 100 µM
GI50 [43]: 15.2 µM
TGI [43]: 80.7 µM
GI50 [44]: 13.9 µM
TGI [44]: 50.5 µM
GI50 [45]: 77.5 µM
TGI [45]: > 100 µM
GI50 [46]: 25.1 µM
TGI [46]: > 100 µM
GI50 [47]: > 100 µM
TGI [47]: > 100 µM
GI50 [48]: 10.7 µM
TGI [48]: > 100 µM
GI50 [49]: 5.98 µM
TGI [49]: 83.4 µM
GI50 [50]: 22.2 µM
TGI [50]: > 100 µM
GI50 [51]: 30.1 µM
TGI [51]: > 100 µM
GI50 [52]: 41.5 µM
TGI [52]: > 100 µM
GI50 [53]: 7.9 µM
TGI [53]: > 100 µM
GI50 [54]: 10.2 µM
TGI [54]: 51.5 µM
GI50 [55]: 2.69 µM
TGI [55]: 31 µM

COC(=O)[C@@H](C)C[C@H](Cc1ccccc1)NC(=O)c1cccc([C@@H](C[C@H](C(C)C)N(C)C(=O)[C@@H](NC(=O)[C@H]2CCCCN2C)C2CC2)OC(C)=O)n1
TGI [1]: 11.3 µM and > 100 µM
GI50 [2]: 0.00333 µM and 0.0296 µM
GI50 [3]: 0.00333 µM
TGI [3]: 33.3 µM
TGI [5]: 0.0358 µM
TGI [6]: 33.3 µM and > 100 µM
GI50 [7]: 0.00333 µM
TGI [7]: 33.3 µM and 69.9 µM
TGI [8]: 33.3 µM and > 100 µM
GI50 [9]: 0.00333 µM and 0.0223 µM
TGI [9]: 33.3 µM and > 100 µM
GI50 [10]: 0.00333 µM
TGI [10]: 3.98 µM and 14.4 µM
GI50 [56]: 0.00333 µM and 0.0234 µM
TGI [56]: 33.3 µM and > 100 µM
GI50 [11]: 0.00333 µM and 0.0297 µM
TGI [11]: 33.3 µM and > 100 µM
TGI [12]: 33.3 µM and > 100 µM
TGI [13]: 33.3 µM and > 100 µM
GI50 [14]: 5.03 µM
TGI [14]: 33.3 µM
GI50 [15]: 0.00333 µM and 0.019 µM
TGI [15]: 33.3 µM and > 100 µM
TGI [16]: 0.0143 µM
GI50 [17]: > 100 µM
TGI [17]: > 100 µM
TGI [19]: 1.14 µM
GI50 [20]: 0.00333 µM
TGI [20]: 7.63 µM and 55.6 µM
TGI [21]: 33.3 µM and > 100 µM
TGI [22]: 33.3 µM and > 100 µM
GI50 [23]: 0.00333 µM and 0.0281 µM
TGI [23]: 4.35 µM and 24 µM
TGI [24]: 33.3 µM and > 100 µM
GI50 [25]: 0.00333 µM
TGI [25]: 33.3 µM and > 100 µM
TGI [57]: 33.3 µM and > 100 µM
GI50 [26]: 0.00333 µM and 0.0265 µM
TGI [26]: 33.3 µM and > 100 µM
GI50 [27]: 0.00333 µM
TGI [27]: 33.3 µM and > 100 µM
TGI [28]: 0.0111 µM
TGI [29]: 37.3 µM
GI50 [30]: 0.02 µM
TGI [30]: 0.0764 µM
GI50 [31]: 0.00333 µM
TGI [31]: 33.3 µM and > 100 µM
TGI [32]: 33.3 µM and > 100 µM
GI50 [33]: 0.00333 µM
TGI [33]: 33.3 µM and > 100 µM
GI50 [34]: 0.00333 µM
GI50 [35]: > 33.3 µM
TGI [35]: > 33.3 µM
TGI [36]: 33.3 µM and > 100 µM
TGI [37]: 33.3 µM and > 100 µM
GI50 [38]: 0.00333 µM
TGI [38]: 33.3 µM and > 100 µM
GI50 [39]: 0.0363 µM
TGI [39]: > 100 µM
GI50 [40]: 5.06 µM and 4.67 µM
TGI [40]: 33.3 µM and > 100 µM
TGI [43]: 33.3 µM and > 100 µM
GI50 [44]: 0.0766 µM
TGI [44]: 33.3 µM
GI50 [45]: 0.00333 µM
TGI [45]: 33.3 µM and > 100 µM
GI50 [46]: 0.00333 µM
TGI [46]: 33.3 µM and > 100 µM
TGI [47]: 33.3 µM and > 100 µM
TGI [48]: 33.3 µM and > 100 µM
TGI [49]: 33.3 µM and > 100 µM
GI50 [50]: 0.00333 µM
TGI [51]: 20.6 µM and > 100 µM
TGI [52]: 33.3 µM and > 100 µM
GI50 [53]: 0.00333 µM and 0.0298 µM
TGI [53]: 33.3 µM and > 100 µM
TGI [54]: 33.3 µM and > 100 µM
TGI [55]: 13.6 µM and 86.6 µM
